According to the CheMixHub viscosity set:

Assay: xn = mol fraction of the nth substance listed

CC1CCCCC1 + CCC(C)O
viscosity [mPa·s], 100 kPa
Conditions | x1 = 0.0811 | x1 = 0.16 | x1 = 0.24 | x1 = 0.35 | x1 = 0.4401 | x1 = 0.56 | x1 = 0.6501 | x1 = 0.7401 | x1 = 0.8492 | x1 = 0.94
293.15 K | 2.84 | 2.24 | 1.78 | 1.36 | 1.15 | 0.99 | 0.95 | 0.92 | 0.87 | 0.79
298.15 K | 2.4 | 1.91 | 1.53 | 1.17 | – | 0.88 | 0.84 | 0.81 | 0.79 | 0.74
303.15 K | 2.02 | 1.63 | 1.31 | 1.02 | 0.88 | 0.79 | 0.76 | 0.74 | 0.73 | 0.69
308.15 K | 1.72 | 1.42 | 1.18 | 0.95 | 0.83 | 0.74 | 0.71 | 0.69 | 0.67 | 0.64
313.15 K | 1.48 | 1.23 | 1.04 | 0.85 | 0.76 | 0.69 | 0.67 | 0.65 | 0.63 | 0.6
318.15 K | 1.27 | 1.07 | 0.91 | 0.76 | 0.69 | 0.64 | 0.62 | 0.61 | 0.59 | 0.56
323.15 K | 1.11 | 0.94 | 0.81 | 0.69 | 0.63 | 0.59 | 0.58 | 0.58 | 0.56 | 0.53

CC(C)CC1CCCCC1 + CCCCCCCCCCCCCCCC
viscosity [mPa·s], 102 kPa
Conditions | x1 = 0.1 | x1 = 0.2005 | x1 = 0.3003 | x1 = 0.3992 | x1 = 0.5037 | x1 = 0.6003 | x1 = 0.6997 | x1 = 0.7997
293.15 K | 3.22 | 2.96 | 2.7 | 2.46 | 2.2 | 1.99 | 1.77 | 1.56
303.15 K | 2.57 | 2.38 | 2.19 | 2.01 | 1.82 | 1.65 | 1.48 | 1.31
313.15 K | 2.1 | 1.95 | 1.81 | 1.67 | 1.52 | 1.39 | 1.26 | 1.12
323.15 K | 1.74 | 1.63 | 1.52 | 1.41 | 1.29 | 1.19 | 1.07 | 0.972

CC1CCCCC1 + c1ccccc1
303.15 K, 101 kPa
Conditions | viscosity [mPa·s]
x1 = 0.203 | 0.5138
x1 = 0.2997 | 0.5057
x1 = 0.4008 | 0.5059
x1 = 0.5041 | 0.5117
x1 = 0.604 | 0.5205
x1 = 0.7992 | 0.5611
x1 = 0.9027 | 0.5961

CCCCCCCCCl + CCCCC
298 K, 101.3 kPa
Conditions | viscosity [mPa·s]
x2 = 0.1047 | 0.9664
x2 = 0.2064 | 0.8559
x2 = 0.3057 | 0.7414
x2 = 0.4042 | 0.6389
x2 = 0.5005 | 0.5441
x2 = 0.6018 | 0.4631
x2 = 0.7019 | 0.3926
x2 = 0.8048 | 0.324
x2 = 0.8982 | 0.2747

CC1CCCCC1 + CCCO
303.15 K, 101.33 kPa
Conditions | viscosity [mPa·s]
x1 = 0.0998 | 1.42
x1 = 0.2182 | 1.188
x1 = 0.4212 | 0.918
x1 = 0.576 | 0.777
x1 = 0.7398 | 0.677
x1 = 0.9 | 0.637
